Assays:
[1] = molecular target: T1, aromatic acyltransferase purified from gentian petals (Gentiana triflora, UniProt Q9ZWR8); experiment: Activity of aromatic acyltransferase purified from gentian petals (active fraction adsorbed to Dyematrix column Red); assay type: biochemical; settings: as in Example 2
T1 construct: an enzyme naturally occurring in gentian petals also has both activities; from tissue; host or cells: Gentiana petals
T1 sequence (Q9ZWR8 1-469): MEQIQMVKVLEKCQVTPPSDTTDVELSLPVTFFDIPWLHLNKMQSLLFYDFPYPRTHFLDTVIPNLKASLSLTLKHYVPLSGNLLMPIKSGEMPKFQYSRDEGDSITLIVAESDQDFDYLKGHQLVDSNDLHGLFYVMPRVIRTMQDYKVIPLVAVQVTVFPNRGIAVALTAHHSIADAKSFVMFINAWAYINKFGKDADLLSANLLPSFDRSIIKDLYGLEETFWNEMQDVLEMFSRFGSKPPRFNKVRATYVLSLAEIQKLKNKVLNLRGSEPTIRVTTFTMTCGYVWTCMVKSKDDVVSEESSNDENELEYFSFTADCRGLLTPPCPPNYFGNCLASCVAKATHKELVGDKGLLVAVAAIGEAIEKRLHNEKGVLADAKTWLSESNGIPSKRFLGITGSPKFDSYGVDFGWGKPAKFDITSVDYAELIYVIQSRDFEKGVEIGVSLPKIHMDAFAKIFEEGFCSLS
Source text: The recombinant protein obtained by expressing a gentian cDNA of an aromatic acyltransferase in E. coli turned out to have an activity of transferring aromatic acyl groups to glucoses at the 5 and the 3′ position of a anthocyanin (Example 2). In order to confirm that an enzyme naturally occurring in gentian petals also has both activities of the 5-aromatic acyltransferase and the 3′-aromatic acyl transferase, this enzyme was purified from gentian petals. In a series of purification, as described in Example 2, each eluted fraction of column chromatography was measured for 5-aromatic acyltransferase activity with DEL 3G-5G as a substrate and for 3′-aromatic acyltransferase activity with DEL 3G-5G-3′G as a substrate.
According to a report by Fujiwara et al. (Fujiwara et al., Eur. J. Biochem. 249: 45, 1997) in which a gentian 5-aromatic acyltransferase was purified, 40-70% ammonium sulfate-saturated fraction was obtained from extract of approximately 100 g of Gentiana petals. This fraction was dialyzed with Sephadex G-25 (Pharmacia) equilibrated with 20 mM Tris-HCl (pH 7.0) containing 10 μM p-aminophenylmethanesulfonyl fluoride (APMSF) and 1 mM DTT (hereinafter referred to as the Tris buffer), then it was loaded to MONO Q (Pharmacia) equilibrated with the Tris buffer. […]
The active fractions were loaded to HiTrap Blue (Pharmacia) and extensively washed in the Tris buffer, and then the adsorbed fraction was eluted with a Tris buffer containing 0.9 M NaCl. […] When the eluted protein was subject to SDS-PAGE, only a single band was detected at molecular weight of 52 kDa which is an estimated molecular weight for an anthocyanin 5-acyltransferase.
In a series of purifications, each eluted fraction of column chromatography was measured for the 5-aromatic acyltransferase activity with DEL 3G-5G as a substrate and for the 5,3′-aromatic acyltransferase activity with DEL 3G-5G-3′G as a substrate, and the fractions with the highest activity in both acyltransferase reactions were completely identical.

[2] = molecular target: T2, recombinant acyltransferase derived from Gentiana triflora expressed in E. coli (Gentiana triflora, UniProt Q9ZWR8); experiment: Measurement of activity of recombinant acyltransferase (HPLC analysis of reaction products); assay type: biochemical; settings: for amount of product formed in time course of the reaction: 25-fold diluted enzyme, DEL 3G-5G-3′G 50, 100 or 200 μM as substrate, 2.5-20 minutes
T2 construct: a fragment containing the coding region of the acyltransferase and the 3′-untranslated region was subcloned to the NcoI/HindIII site; made in house; host or cells: E. coli JM109 (pQE8, derived from pQE60)
T2 sequence (Q9ZWR8 1-469): T1 sequence (Q9ZWR8 1-469)
Experimental: The enzymatic activity of the recombinant enzyme obtained in Example 1 was measured with 3 types of delphinidin derivatives (delphinidin 3,5,3′-triglucoside (DEL 3G-5G-3′G), delphinidin 3-glucosyl-5-caffeoylglucosyl-3′-glucoside (DEL 3G-5CafG-3′G), delphinidin 3-glucosyl-5-glucosyl-3′-caffeoylglucoside (DEL 3G-5G-3′CafG)) shown in FIG. 1 and FIG. 2 as substrates. The reaction mixture contained 100 mM potassium phosphate buffer (pH 8.5), 0.2 mM caffeoyl-CoA, […] each of the above substrates and 5 μl of the enzyme solution in a total volume of 50 μl, and the reaction was carried out at 30° C. for 15 minutes. An equal volume of 90% acetonitrile solution containing 0.1% trifluoroacetic acid (TFA) was added to the reaction mixture to stop the reaction.
In order to analyze time course changes of reaction products, 5 μl of a 25-fold diluted enzyme solution and each of 50 μM, 100 μM or 200 μM of DEL 3G-5G-3′G were used as a substrate, and the reaction was stopped at 2.5, 5, 10, and 20 minutes later to analyze the products. The reaction products were analyzed with a reverse phase high performance liquid chromatography (HPLC) using a DE-41 column (4.6×250 mm, Shodex). Samples were eluted with an liner gradient of 20-50% of acetonitrile containing 0.5% TFA at 0.6 ml/min for 15 minutes, and then isoclatic elution at 0.6 ml/min for 10 minutes, and detected with SPD-M10A (SHIMAZU Corporation) at a wavelength of 250-600 nm. The HPLC elution time and absorption spectra of products were compared with those of authentic samples to identify the structure of products.

[3] = Flower color simulation: purified pigment in juice squeezed from rose petals (cv. Medeo); assay type: physicochemical; settings: Medeo squeezed juice (petal pH 4.38), diluted 4-fold; among five purified pigments
Experimental: In order to simulate the flower color when the gene for gentian anthocyanin 5,3′-acyltransferase was introduced into roses and DEL 3G-5CafG-3′CafG was accumulated in rose petals, the color development of a purified pigment suspended in juice squeezed form rose petals (cv. Medeo) was measured. As for purified pigments, DEL 3G-5CafG-3′CafG, and as a comparative control, DEL 3G-5G, cyanidin 3,5-diglucoside (CYA 3G-5G), pelargonidin 3,5-diglucoside (PEL 3G-5G) and malvidin 3,5-diglucoside (MAL 3G-5G) were used. About 20 g of Medeo petals frozen at −80° C. for more than one hour were squeezed by a garlic squeezer for household use, and centrifuged at 1000 rpm for 1 minute to remove the debris of the petals, and the supernatant was prepared as the squeezed juice.
Twenty μl of 50 mM DMSO solution of purified pigment was added to 1 ml of the squeezed juice, and kept for 10 minutes, and the absorption and transmittance spectra at 380-780 nm were measured with a spectrophotometer UV-2500PC(SHIMADZU Corporation). The transmittance spectrum values were converted into CIE L*a*b* color system (JISZ8729). […] However, since the absorbance for 3G-5CafG-3′CafG was too high, it was diluted 4-fold prior to measurement.

[4] = among four delphinidin glucosides, cited from earlier work
[5] = molecular target: T3, 5,3′-aromatic acyltransferase from Gentiana triflora expressed in nierembergia (Gentiana triflora, UniProt Q9ZWR8); experiment: In vitro 5,3′-aromatic acyltransferase activity of crude enzyme from petals of nierembergia transformants; assay type: biochemical; settings: in a manner similar to Example 2
T3 construct: expressed in transfected cells; host or cells: petals of transgenic nierembergia (binary construct pSPB1536, 35S promoter)
T3 sequence (Q9ZWR8 1-469): T1 sequence (Q9ZWR8 1-469)
Source text: On the other hand, a crude enzyme was extracted from the petals of the transformants where transcription of all three genes were confirmed, in a manner as described in the report by Fujiwara et al. (Fujiwara et al., (1997) Eur. J. Biochem. 249: 45-51). […] On the other hand, when the crude enzyme from a non-recombinant nierembergia was used as the control, gentiodelphin was not detected.

[6] = 250 mM substrate, 0.2 mM caffeoyl-CoA, pH 8.5, 30° C., 15 minutes, undiluted enzyme

Compound	reaction of the enzyme purified from gentian petals with the substrate [1]	substrate converted to DEL 3G-5CafG-3′CafG [2, 6]	amount of product formed in time course of the reaction [2]	maximum absorption spectrum (relative) [3]	absorbance maximum (relative wavelength) [4]	blueness (relative) [4]	relative stability (fading) ([4]; aqueous solution of pH 6.5)	product formation from the substrate by crude enzyme of transgenic nierembergia [5]	substrate converted to DEL 3G-5CafG-3′G (acyl group at the 5 position alone) [2, 6]	substrate converted to DEL 3G-5G-3′CafG (acyl group at the 3′ position alone) [2, 6]
delphinidin 3-glucosyl-5-glucosyl-3′-caffeoylglucoside [DEL 3G-5G-3′CafG]	reacted	95.2%	barely detected	–	–	–	–	–	–	–
O=C(/C=C/c1ccc(O)c(O)c1)OC[C@H]1O[C@@H](Oc2cc(-c3[o+]c4cc(O)cc(O[C@@H]5O[C@H](COC(=O)/C=C/c6ccc(O)c(O)c6)[C@@H](O)[C@H](O)[C@H]5O)c4cc3O[C@@H]3O[C@H](CO)[C@@H](O)[C@H](O)[C@H]3O)cc(O)c2O)[C@H](O)[C@@H](O)[C@@H]1O [DEL 3G-5CafG-3′CafG, gentiodelphin]	–	–	increased according to the reaction time	largest maximum absorption spectrum	longest wavelength	most blueish	most stable and refractory to fading	–	–	–
delphinidin 3-glucosyl-5-caffeoylglucosyl-3′-glucoside [DEL 3G-5CafG-3′G]	reacted	94.1%	increased according to the reaction time	–	–	–	–	–	–	–
OC[C@H]1O[C@@H](Oc2cc3c(O[C@@H]4O[C@H](CO)[C@@H](O)[C@H](O)[C@H]4O)cc(O)cc3[o+]c2-c2cc(O)c(O)c(O[C@@H]3O[C@H](CO)[C@@H](O)[C@H](O)[C@H]3O)c2)[C@H](O)[C@@H](O)[C@@H]1O [DEL 3G-5G-3′G, delphinidin 3,5,3′-triglucoside]	reacted	58.7%	–	–	–	–	–	formation of gentiodelphin was confirmed	7.2%	≤ 1%

— patent US8053634B2, “Stabilization and blueing of anthocyanin pigments using gene encoding aromatic acyltransferase capable of transferring an aromatic acyl group to the 3′-position of anthocyanin” (Suntory Holdings Limited, priority 2004, dated 2011)
